# Measurements from article PMC8269394, “Characterization of an Atypical Trypanosoma brucei Hsp70 Demonstrates Its Cytosolic-Nuclear Localization and Modulation by Quercetin and Methylene Blue” (International Journal of Molecular Sciences, 2021).
# Assays:
# Test in all cases: ATPase assay, colorimetric phosphate release
# Type in all cases: biochemical
# TcHsp70B-Tbj2 = target: T1, TcHsp70B-Tbj2 (Trypanosoma cruzi, UniProt P05456); conditions: 30 µM quercetin; 0.4 µM each protein; 600 µM ATP; 37 °C
# T1 construct: gene HSP70; mixed species: recombinant T. cruzi TcHsp70B with recombinant T. brucei co-chaperone Tbj2; with Chaperone protein DnaJ, putative (type I J-protein Tbj2, Trypanosoma brucei)
# T1 sequence (P05456 whole entry): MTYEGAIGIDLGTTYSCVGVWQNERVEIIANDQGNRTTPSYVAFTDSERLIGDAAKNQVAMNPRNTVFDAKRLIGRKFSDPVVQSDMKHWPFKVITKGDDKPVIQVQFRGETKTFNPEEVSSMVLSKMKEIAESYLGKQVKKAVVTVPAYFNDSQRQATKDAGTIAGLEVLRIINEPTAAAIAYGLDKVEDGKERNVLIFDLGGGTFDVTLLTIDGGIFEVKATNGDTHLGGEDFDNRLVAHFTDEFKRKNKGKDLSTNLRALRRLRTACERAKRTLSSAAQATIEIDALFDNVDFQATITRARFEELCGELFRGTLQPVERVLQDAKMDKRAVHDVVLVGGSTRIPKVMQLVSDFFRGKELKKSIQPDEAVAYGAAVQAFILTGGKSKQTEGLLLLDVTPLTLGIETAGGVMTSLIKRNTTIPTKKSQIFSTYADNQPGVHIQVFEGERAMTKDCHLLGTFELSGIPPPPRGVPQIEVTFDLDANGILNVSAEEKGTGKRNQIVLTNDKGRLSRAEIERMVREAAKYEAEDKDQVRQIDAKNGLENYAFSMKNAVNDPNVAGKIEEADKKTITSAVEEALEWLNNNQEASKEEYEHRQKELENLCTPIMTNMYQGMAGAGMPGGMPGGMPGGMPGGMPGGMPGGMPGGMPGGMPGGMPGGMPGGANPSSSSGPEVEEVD
# T1 sequence (Q585V4 1-404 partner): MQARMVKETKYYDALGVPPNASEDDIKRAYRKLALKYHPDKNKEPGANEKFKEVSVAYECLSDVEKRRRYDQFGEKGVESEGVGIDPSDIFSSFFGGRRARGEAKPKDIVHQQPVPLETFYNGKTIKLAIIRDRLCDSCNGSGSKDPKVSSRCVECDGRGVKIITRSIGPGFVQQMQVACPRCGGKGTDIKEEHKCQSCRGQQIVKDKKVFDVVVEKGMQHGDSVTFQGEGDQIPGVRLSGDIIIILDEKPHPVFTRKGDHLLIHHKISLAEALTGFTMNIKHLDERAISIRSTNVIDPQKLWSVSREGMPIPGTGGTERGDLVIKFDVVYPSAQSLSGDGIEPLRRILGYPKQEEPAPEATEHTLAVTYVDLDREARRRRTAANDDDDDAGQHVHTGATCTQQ
# TbHsp70.c [1] = target: T2, TbHsp70.c (Trypanosoma brucei, UniProt Q383E9); conditions: 30 µM quercetin; 0.4 µM protein; 600 µM ATP; 37 °C; no Tbj2
# T2 construct: gene Tb11.01.3080
# T2 sequence (Q383E9 1-676): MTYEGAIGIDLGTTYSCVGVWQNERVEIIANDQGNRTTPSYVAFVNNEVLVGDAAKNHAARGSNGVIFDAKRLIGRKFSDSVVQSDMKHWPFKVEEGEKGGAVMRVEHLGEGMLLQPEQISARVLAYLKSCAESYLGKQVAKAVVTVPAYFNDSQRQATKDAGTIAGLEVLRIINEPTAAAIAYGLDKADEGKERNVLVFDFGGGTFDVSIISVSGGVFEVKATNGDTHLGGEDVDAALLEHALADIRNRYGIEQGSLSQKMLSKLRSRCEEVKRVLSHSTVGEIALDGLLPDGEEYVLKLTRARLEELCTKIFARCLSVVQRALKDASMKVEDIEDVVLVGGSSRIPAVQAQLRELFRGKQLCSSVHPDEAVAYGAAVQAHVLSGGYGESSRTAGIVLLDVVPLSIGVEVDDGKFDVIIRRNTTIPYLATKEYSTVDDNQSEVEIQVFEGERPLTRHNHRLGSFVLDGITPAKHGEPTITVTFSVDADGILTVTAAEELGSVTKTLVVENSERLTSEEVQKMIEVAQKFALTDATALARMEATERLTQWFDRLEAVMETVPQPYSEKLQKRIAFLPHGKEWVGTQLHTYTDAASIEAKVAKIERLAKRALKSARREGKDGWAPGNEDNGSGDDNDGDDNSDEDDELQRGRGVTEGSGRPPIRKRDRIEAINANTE
# TbHsp70.c-Tbj2 [2] = target: T3, TbHsp70.c-Tbj2 (Trypanosoma brucei, UniProt Q383E9); conditions: 30 µM quercetin; 0.4 µM each protein; 600 µM ATP; 37 °C
# T3 construct: gene Tb11.01.3080; recombinant purified TbHsp70.c with recombinant co-chaperone Tbj2 at equal concentration; with Chaperone protein DnaJ, putative (type I J-protein Tbj2)
# T3 sequence (Q383E9 1-676): as above
# T3 sequence (Q585V4 1-404 partner): as the sequence (Q585V4 1-404 partner) above
# TcHsp70B [3] = target: T4, TcHsp70B (Trypanosoma cruzi, UniProt P05456); conditions: 30 µM quercetin; 0.4 µM protein; 600 µM ATP; 37 °C; no Tbj2
# T4 construct: gene HSP70
# T4 sequence (P05456 whole entry): as the sequence (P05456 whole entry) above
# TcHsp70B [4] = target: T4, TcHsp70B; conditions: 600 µM ATP; 37 °C; no Tbj2
# TbHsp70.c [5] = target: T2, TbHsp70.c; conditions: 600 µM ATP; 37 °C; no Tbj2
# TbHsp70.c-Tbj2 [6] = target: T3, TbHsp70.c-Tbj2; conditions: 30 µM methylene blue; 1 µM each protein; 600 µM ATP; 37 °C; activator
# Description: ATPase assay, colorimetric phosphate release on TbHsp70.c-Tbj2 | in the presence of Tbj2, methylene blue enhanced the ATPase activity of TbHsp70.c
smiles,measurement,setting,value
"O=c1c(O)c(-c2ccc(O)c(O)c2)oc2cc(O)cc(O)c12 [quercetin, 3,3′,4′,5,7-Pentahydroxyflavone]",fold inhibition of Tbj2-stimulated ATPase at 30 μM,TcHsp70B-Tbj2,1.4 fold
same,basal ATPase inhibition at 30 μM,TbHsp70.c [1],Our findings suggest that quercetin inhibits the basal ATPase activity of TbHsp70.c
same,fold inhibition of Tbj2-stimulated ATPase at 30 μM,TbHsp70.c-Tbj2 [2],9.3 fold
same,fold inhibition of basal ATPase at 30 μM,TcHsp70B [3],1.3 fold
Nc1ncnc2c1ncn2[C@@H]1O[C@H](COP(=O)(O)OP(=O)(O)OP(=O)(O)O)[C@@H](O)[C@H]1O [ATP],"ATPase assay, colorimetric phosphate release",TcHsp70B [4],Inorganic phosphate released by ATP in the presence of each Hsp70 was monitored
same,"ATPase assay, colorimetric phosphate release",TbHsp70.c [5],Inorganic phosphate released by ATP in the presence of each Hsp70 was monitored
CN(C)c1ccc2nc3ccc(=[N+](C)C)cc-3sc2c1 [methylene blue],fold increase in Tbj2-stimulated ATPase at 30 μM,TbHsp70.c-Tbj2 [6],1.5 fold
